Test results: US20020040031A1, “Methods for prevention of accumulation of amyloid beta peptide in the central nervous system” (priority 2000, published 2002)

Assays:
[1] = system: sAPP secretion in PC12 cells; experiment: sAPP secretion in PC12 cells, Western immunoblot of conditioned media (Example 1); type: cell-based; conditions: for secretion of sAPP versus control: single agent, PC12 conditioned media, 48 hours, 22C11 immunoblot, NGF 10 and 50 ng/ml, bFGF 50 ng/ml, AIT-082 different doses
Procedure: Treatment of Cells and Preparation of Cell Extract. PC12 cells were first grown to 70-80% confluence in the regular medium. A day prior to the experiment, PC12 cells were subcultured uniformly onto the plate with minimum cellular aggregation/ clumping to approximately 1×10^6 cells per 60-mm plate. The PC12 cells were then subjected to treatments with either AIT-082, NGF, bFGF or a combination as previously described (4). AIT-082 was added into separate plates at […] different doses: 0, 5, 20, 30, 50, 100, 300 ng/ ml and also 1, 3, 10, 30, 100 μg/ml. For comparative purposes, cultures were treated with NGF at 10 and 50 ng/ml, and bFGF was used at 50 ng/ml. Additional cultures contained both AIT-082 (300 ng/ml) and either NGF (50 ng/ml) or bFGF (50 ng/ml). Following incubation for 48 hours, the conditioned medium from each plate was collected.
PAGE and Western Immunoblotting. Total proteins from the conditioned media were analyzed on a 12% polyacrylamide gel containing SDS (SDS-PAGE), and western blot analysis was performed in the Mini-PROTEAN II system of Bio-Rad as described previously (6). sAPP was detected using the 22C11 (Boehringer Mannheim, Indianapolis, Ind.). A biotinylated secondary antibody, horse anti-mouse (Boehringer Mannheim), was also used. The detection system was based on the avidin-biotinylated-complex (Vector labs, Burlingame, Calif.) and enzymatic color reactions.
Treatment of NGF or bFGF Results in a Substantial Increase in sAPP Secretion in PC12 Cells. In denaturing polyacrylamide gel, an equal amount of total protein was loaded from each of the conditioned medium samples. After 48 hours of incubation, 50 μg samples of conditioned media were subjected to SDS-PAGE (12%) and transferred to a nitrocellulose membrane. Protein size markers shown on the left of the blot from top to bottom are: 107, 74, 49.3, 36.4, and 28.5 kDa. For FIG. 1, the transferred proteins were probed with anti-APP antibody (22C11), and immunodetection was carried out by the enzymatic color method as described previously (5). Two distinct bands of 110 and 95 kDa were detected, which correspond to soluble APP derivatives (sAPP) arising from different alternate forms of APP and/or their posttranslationally modified derivatives.

[2] = system: sAPP release from PC12 cultures; conditions: previously shown, reference 7; cited from earlier work
[3] = system: PC12 cells; experiment: NGF-mediated differentiation of PC12 cells (Example 2); type: cell-based
[4] = system: nerve growth factor (NGF), neurotrophin-3, and basic fibroblast growth factor (bFGF); conditions: at least three neurotrophins; reference 3; cited from earlier work
[5] = system: secretion of Aβ in cultured PC12 cells; experiment: Secretion of Aβ in cultured PC12 cells, sandwich ELISA (Example 3); type: cell-based; conditions: AIT-082 100 μg/ml, PC12 conditioned media
Procedure: To determine the effect of AIT-082 on Aβ levels, PC12 cells were treated with a high dose of AIT-082 (100 μg/ ml) and the conditioned media was analyzed for Aβ. Levels of total Aβ were measured using a sensitive sandwich ELISA. Experiments were done in triplicate and the values were obtained from known standards run in parallel with the samples as described previously (A. Becher et al., “The Synaptophysin-Synaptobrevin Complex: A Hallmark of Synaptic […] Maturation,” J. Neurosci. 19: 1922-1931).

[6] = system: sAPP secretion in PC12 cells; experiment: Time course of sAPP secretion in PC12 cells, Western immunoblotting (Example 2); type: cell-based; conditions: PC12 cells treated for 6, 12, 24, 48, or 72 hours; AIT-082 10 nM-100 μM; RPMI 1640 and 0.5% FBS
Procedure: To determine the time course of sAPP secretion after administration of AIT-082 or NGF to PC12 cells, an experiment similar to the experiment of Example 1 was carried out using multiple time points. Five to six million PC12 cells were treated in RPMI 1640 and 0.5% FBS with doses of AIT-082 (10 nM-100 μM). […] Levels of sAPP in samples from conditioned media and cell lysates were measured by Western immunoblotting with anti-sAPP antibody. When PC12 cells were treated with AIT-082 for 6, 12, 24, 48, or 72 hours, there was an increase in levels of secreted sAPP.

Row | Compound | secretion of sAPP versus control [1] | release of sAPP from PC12 cultures [2] | differentiation phenotype of PC12 cells ([3]; NGF treatment alone) | levels of extracellular sAPP versus control cultures (dose response, densitometry, FIG. 2) ([1]; AIT-082 5-300 ng/ml, PC12) | expression of neurotrophins (NGF, neurotrophin-3, bFGF) [4] | Percent change from controls (total Aβ) [5] | Levels of total Aβ ([5]; triplicate) | levels of secreted sAPP [6] | effect of cotreatment on NGF-mediated differentiation ([3]; AIT-082 cotreatment with NGF, PC12 cells)
1 | NGF: Nerve growth factor procured from Life Technologies | significant increase | induce the release of sAPP | sympathetic neuronal phenotypes |  |  |  |  |  | 
2 | bFGF: basic fibroblast growth factor procured from Life Technologies | slight increase |  |  |  |  |  |  |  | 
3 | O=C(CCn1cnc2c(=O)[nH]cnc21)Nc1ccc(C(=O)O)cc1 [AIT-082, N-4-carboxyphenyl-3-(6-oxohydropurin-9-yl) propanamide] | significant increase |  |  | statistically significantly higher | induce the expression | −20% | 136 ± 6 fmols/ml | increase | enhanced NGF-mediated differentiation
